Assay results from US12421277B2, “Anti-aging salmon roe tripeptide and preparation method and application thereof” (Shenzhen Porshealth Bioengineering Co., Ltd., priority 2023, dated 2025).
Where a SMILES comes first, the peptide text is derived from it.

Experiment: Blood absorption of YLP in rats, UPLC-MS/MS
Conditions: rat, in vivo, po, SD rats, intragastric 100 mg/kg bw
Protocol: In this research, SD rats are used, and divided into three groups: a normal group and salmon YLP groups (with a daily dosage of 100 mg/kg bw). The rats are fasted but allowed to drink water 12 h before the experiment begins. At 15 min, 45 min, 90 min, 180 min and 360 min after intragastric administration, all the rats are anesthetized with the 3% pentobarbital sodium, and blood is collected from abdominal aortas, followed by euthanasia. […]
• (1) The required samples are taken out for thawing, and uniformly mixed by a vortex. • (2) 40 μL of a mixed sample is taken, and 120 μL of methanol is added for shaking treatment for 10 min, and a resultant is centrifuged at a low temperature for 10 min. • (3) 70 μL of a supernatant solution is taken from the centrifuged sample for subsequent measurement. 4.2.2.2 Preparation of Standard Solution
Chromatographic separation is performed by using a Waters ACQUITY UPLC I-CLASS ultra-high performance liquid chromatographic device. Specific conditions are as follows: chromatographic column Waters UPLC HSS T3 ([…], 2.1 mm×100 mm)—mobile phase: A phase (water, 0.1% formic acid), B phase (methanol)—flow rate: 0.3 mL/min—injection volume: 5.0 μL—column temperature: 40° C. —single sample analysis time: 8 min.
A Waters XEVO TQ-XS tandem quadrupole mass spectrometer is used for mass spectrometry detection. Specific conditions are as follows: positive ion source voltage: 3.0 kV—cone voltage: 30 V—desolvation temperature: 500° C. —desolvation gas flow rate: […]—cone gas flow rate: […].
Data is expressed in the form of Mean±SD. Graphpad is used for data processing and significance analysis. […] A target peak area in polypeptide metabolic data is calculated by using TargetLynx software, and an allowable error of a retention time is 15 s. Concentration calculation is based on a standard curve method to obtain quantitative results.

CC(C)C[C@H](NC(=O)[C@@H](N)Cc1ccc(O)cc1)C(=O)N1CCC[C@H]1C(=O)O [YLP] (H-Tyr-Leu-Pro-OH; N-terminus and C-terminus assumed)
AUC (15-360 min): 6.19 ng·h/mL
Cmax (at 90 min, read-out: maximum content of YLP in blood): 1.31 ± 0.44 ng/mL
Tmax (read-out: time of maximum content in blood (converted)): 1.5 h
